Test results: ChEMBL document CHEMBL4130348, “Structure-activity relationship investigation for benzonaphthyridinone derivatives as novel potent Bruton's tyrosine kinase (BTK) irreversible inhibitors” (Eur J Med Chem, 2017)
The source made the active and inactive calls. The calls are words filed in the database; no cut-off is given here.

Test system: Pfeiffer
Test: Cell cycle arrest in human Pfeiffer cells assessed as accumulation at G0/G1 phase up to 10 uM after 48 hrs by propidium iodide staining-based flow cytometric method
Type: functional

C=CC(=O)Nc1cc(-n2c(=O)ccc3cnc4ccc(-n5cccn5)cc4c32)ccc1C
Activity: Active
